Our source for the MIC and IC50 values is ChEMBL document CHEMBL6153051, “Synthesis, biological evaluation and validation of IMB-881 derivatives as anti-Gram-negative bacterial agents” (Bioorg Med Chem, 2025).

The structures appear in SMILES notation. Converted amounts (≈) assume the structure as drawn.

In series [1] the test system is Acinetobacter baumannii. Put plainly: Antibacterial activity against Acinetobacter baumannii ATCC 19606 assessed as bacterial growth inhibition in presence of CAMHB medium by broth microdilution method. It counts as functional. (Broth dilution looks for growth in wells or tubes with falling amounts of substance.)
In series [2] the test system is Escherichia coli. In words: Antibacterial activity against multi-drug resistant Escherichia coli 3 clinical isolate assessed as bacterial growth inhibition in presence of CAMHB medium by broth microdilution method. It counts as functional.
Another series concerns Pseudomonas aeruginosa. In words: Antibacterial activity against Pseudomonas aeruginosa PAO1 assessed as bacterial growth inhibition in presence of CAMHB medium by broth microdilution method. It counts as functional.
A short description of series [3]: Cytotoxicity against green monkey Vero cells incubated for 48 hrs by CCK-8 assay. It counts as toxicity, cell-based. The following applies: green monkey (Chlorocebus sabaeus).
In series [4] the test system is Escherichia coli. Put plainly: Antibacterial activity against multi-drug resistant Escherichia coli 2 clinical isolate assessed as bacterial growth inhibition in presence of CAMHB medium by broth microdilution method. It counts as functional.
Series [5] deals with Escherichia coli. In words: Antibacterial activity against multi-drug resistant Escherichia coli 1 clinical isolate assessed as bacterial growth inhibition in presence of CAMHB medium by broth microdilution method. It counts as functional.
Series [6] relates to Acinetobacter baumannii. Put plainly: Antibacterial activity against multi-drug resistant Acinetobacter baumannii 5 clinical isolate assessed as bacterial growth inhibition in presence of CAMHB medium by broth microdilution method. It counts as functional.
The test system of series [7] is Acinetobacter baumannii. In words: Antibacterial activity against multi-drug resistant Acinetobacter baumannii 2 clinical isolate assessed as bacterial growth inhibition in presence of CAMHB medium by broth microdilution method. It counts as functional.
In series [8] the test system is Acinetobacter baumannii. Put plainly: Antibacterial activity against multi-drug resistant Acinetobacter baumannii 1 clinical isolate assessed as bacterial growth inhibition in presence of CAMHB medium by broth microdilution method. It counts as functional.
The nature of series [9]: Cytotoxicity against dog MDCK cells incubated for 48 hrs by CCK-8 assay. It counts as toxicity, cell-based. The conditions noted are these: dog (Canis lupus familiaris). (In general: Formazan colour is commonly taken as a measure of viable cells.)
Series [10] has as its system Escherichia coli. Put plainly: Antibacterial activity against ESBL(+) producing Escherichia coli ATCC 35218 assessed as bacterial growth inhibition in presence of CAMHB medium by broth microdilution method. It counts as functional.
Series [11] has as its system Acinetobacter baumannii. Put plainly: Antibacterial activity against multi-drug resistant Acinetobacter baumannii 3 clinical isolate assessed as bacterial growth inhibition in presence of CAMHB medium by broth microdilution method. It counts as functional.
Series [12] relates to Escherichia coli. Put plainly: Antibacterial activity against multi-drug resistant Escherichia coli 4 clinical isolate assessed as bacterial growth inhibition in presence of CAMHB medium by broth microdilution method. It counts as functional.
Series [13] relates to Acinetobacter baumannii. In words: Antibacterial activity against multi-drug resistant Acinetobacter baumannii 4 clinical isolate assessed as bacterial growth inhibition in presence of CAMHB medium by broth microdilution method. It counts as functional.
Another series relates to Klebsiella pneumoniae. Put plainly: Antibacterial activity against Klebsiella pneumoniae ATCC […] assessed as bacterial growth inhibition in presence of CAMHB medium by broth microdilution method. It counts as functional.
Series [14] deals with Escherichia coli. In words: Antibacterial activity against multi-drug resistant Escherichia coli 5 clinical isolate assessed as bacterial growth inhibition in presence of CAMHB medium by broth microdilution method. It counts as functional.
The test system of series [15] is Escherichia coli. Put plainly: Antibacterial activity against Escherichia coli ATCC 25922 assessed as bacterial growth inhibition in presence of CAMHB medium by broth microdilution method. It counts as functional.

Regarding `Fc1cc2c(c3ncccc13)OCN(CCc1cccc(Br)c1)C2`, the minimal inhibitory concentration (MIC) came out at 6.25 µg/mL in the series on Acinetobacter baumannii [1]; 50 µg/mL in the series with Escherichia coli [2]; 100 µg/mL with Pseudomonas aeruginosa; 50 µg/mL with Escherichia coli [4]; 50 µg/mL with Escherichia coli [5]; 12.5 µg/mL in the series on Acinetobacter baumannii [6]. In addition, the minimum inhibitory concentration (MIC) amounted to 25 µg/mL in the series with Acinetobacter baumannii [7]; 250 µg/mL with Acinetobacter baumannii [8]; 25 µg/mL in the series with Escherichia coli [10]; 25 µg/mL in the series with Acinetobacter baumannii [11]; 50 µg/mL in the series on Escherichia coli [12]; 12.5 µg/mL with Acinetobacter baumannii [13]. Also, the minimal inhibitory concentration (MIC) in the series on Klebsiella pneumoniae was 50 µg/mL; with Escherichia coli [14], 50 µg/mL; in the series on Escherichia coli [15] it was 6.25 µg/mL. The IC50 at 48 h in series [3] is greater than 50 µg/mL; in series [9], 32 µg/mL (≈ 82.5 µM).
As to `Fc1ccc(CN2COc3c(cc(Cl)c4cccnc34)C2)c(F)c1`, the minimal inhibitory concentration (MIC) was 3.12 µg/mL in the series with Acinetobacter baumannii [1]; 50 µg/mL with Escherichia coli [2]; 100 µg/mL with Pseudomonas aeruginosa; 50 µg/mL in the series with Escherichia coli [4]; 50 µg/mL with Escherichia coli [5]; 50 µg/mL in the series with Acinetobacter baumannii [6]. Moreover, the MIC in the series with Acinetobacter baumannii [7] is 25 µg/mL; with Acinetobacter baumannii [8] it was 50 µg/mL; in the series with Escherichia coli [10] it was greater than 100 µg/mL; with Acinetobacter baumannii [11], 50 µg/mL; with Escherichia coli [12], 50 µg/mL; in the series on Acinetobacter baumannii [13], 25 µg/mL. Further, the minimal inhibitory concentration (MIC) turned out to be 50 µg/mL in the series on Klebsiella pneumoniae, 50 µg/mL in the series on Escherichia coli [14] and 6.25 µg/mL in the series on Escherichia coli [15]. In addition, the concentration for half-maximal inhibition (IC50) at 48 h in series [3] is greater than 50 µg/mL; in series [9] it was 34.2 µg/mL (≈ 98.6 µM).
Take `Fc1cc2c(c3ncccc13)OCN(CCc1ccc(Br)cc1)C2`: the minimal inhibitory concentration (MIC) was determined as 3.12 µg/mL with Acinetobacter baumannii [1]; 50 µg/mL in the series on Escherichia coli [2]; 100 µg/mL in the series with Pseudomonas aeruginosa; 50 µg/mL with Escherichia coli [4]; 50 µg/mL in the series with Escherichia coli [5]; 6.25 µg/mL in the series with Acinetobacter baumannii [6]. Further, the minimal inhibitory concentration (MIC) in the series on Acinetobacter baumannii [7] is 3.12 µg/mL; in the series on Acinetobacter baumannii [8] it was 12.5 µg/mL; with Escherichia coli [10], 25 µg/mL; in the series on Acinetobacter baumannii [11] it was 12.5 µg/mL; in the series on Escherichia coli [12], 50 µg/mL; with Acinetobacter baumannii [13], 25 µg/mL. For the same molecule, the minimum inhibitory concentration (MIC) amounted to 100 µg/mL in the series on Klebsiella pneumoniae, 50 µg/mL in the series with Escherichia coli [14] and 6.25 µg/mL in the series on Escherichia coli [15]. Besides, the concentration for half-maximal inhibition (IC50) at 48 h in series [3] was greater than 50 µg/mL; in series [9] it was 44.9 µg/mL (≈ 116 µM).
As for `Fc1cc2c(c3ncccc13)OCN(CCc1cccc(Cl)c1)C2`, the minimal inhibitory concentration (MIC) with Acinetobacter baumannii [1] is 6.25 µg/mL; with Escherichia coli [2], 50 µg/mL; in the series on Pseudomonas aeruginosa, 100 µg/mL; in the series on Escherichia coli [4], 50 µg/mL; in the series with Escherichia coli [5], 50 µg/mL; with Acinetobacter baumannii [6] it was 25 µg/mL. Also, the minimum inhibitory concentration (MIC) in the series with Acinetobacter baumannii [7] is 25 µg/mL; with Acinetobacter baumannii [8], 6.25 µg/mL; with Escherichia coli [10] it was 25 µg/mL; in the series with Acinetobacter baumannii [11] it was 25 µg/mL; in the series with Escherichia coli [12], 50 µg/mL; with Acinetobacter baumannii [13], 12.5 µg/mL. The MIC was found to be 50 µg/mL in the series with Klebsiella pneumoniae, 50 µg/mL with Escherichia coli [14] and 6.25 µg/mL with Escherichia coli [15]. Moreover, the IC50 at 48 h was greater than 50 µg/mL in series [3] and 42.3 µg/mL (≈ 123 µM) in series [9].
On to `Fc1cc2c(c3ncccc13)OCN(Cc1ccc(Cl)cc1)C2`, for which the MIC turned out to be 6.25 µg/mL with Acinetobacter baumannii [1]; 50 µg/mL with Escherichia coli [2]; 50 µg/mL in the series with Pseudomonas aeruginosa; 50 µg/mL in the series on Escherichia coli [4]; 50 µg/mL in the series on Escherichia coli [5]; 25 µg/mL with Acinetobacter baumannii [6]. In addition, the MIC is 25 µg/mL with Acinetobacter baumannii [7]; 12.5 µg/mL in the series with Acinetobacter baumannii [8]; 25 µg/mL in the series with Escherichia coli [10]; 12.5 µg/mL with Acinetobacter baumannii [11]; 50 µg/mL in the series on Escherichia coli [12]; 3.12 µg/mL in the series with Acinetobacter baumannii [13]. Further, the values for the MIC with Klebsiella pneumoniae, with Escherichia coli [14] and in the series with Escherichia coli [15] were 100 µg/mL, 50 µg/mL and 6.25 µg/mL, respectively. For the same molecule, the results for the IC50 at 48 h in [3] and in series [9] were greater than 50 µg/mL and 35.6 µg/mL (≈ 108 µM), respectively.

As usually defined, the MIC is the least concentration at which growth counts as inhibited. As usually defined, the IC50 is the concentration that inhibits the measured activity by half.
